Data reported in ChEMBL document CHEMBL5518210 (J Med Chem, 2024).

Experiments:
in vivo = settings: C57BL/6, mouse, po, 10 mg/kg
Description: Oral bioavailability in C57BL/6 mouse at 10 mg/kg

[1] = target: Kelch-like ECH-associated protein 1 (Homo sapiens, UniProt Q14145); test: Binding affinity to biotinylated Keap1 Kelch domain (unknown origin) by SPR method
[2] = Apparent permeability in human Caco-2 cells incubated for 2 hrs by LC/MS analysis
Keap1/Nrf2 = Keap1/Nrf2 (Homo sapiens, UniProt Q14145); test: Inhibition of His-tagged human Keap1 Kelch domain /FITC-labelled-9mer Nrf2 (unknown origin) protein-protein interaction incubated for 1 hr by fluorescence polarization assay
Sequence of Keap1/Nrf2 (Q16236 whole entry, the tested form may be a part): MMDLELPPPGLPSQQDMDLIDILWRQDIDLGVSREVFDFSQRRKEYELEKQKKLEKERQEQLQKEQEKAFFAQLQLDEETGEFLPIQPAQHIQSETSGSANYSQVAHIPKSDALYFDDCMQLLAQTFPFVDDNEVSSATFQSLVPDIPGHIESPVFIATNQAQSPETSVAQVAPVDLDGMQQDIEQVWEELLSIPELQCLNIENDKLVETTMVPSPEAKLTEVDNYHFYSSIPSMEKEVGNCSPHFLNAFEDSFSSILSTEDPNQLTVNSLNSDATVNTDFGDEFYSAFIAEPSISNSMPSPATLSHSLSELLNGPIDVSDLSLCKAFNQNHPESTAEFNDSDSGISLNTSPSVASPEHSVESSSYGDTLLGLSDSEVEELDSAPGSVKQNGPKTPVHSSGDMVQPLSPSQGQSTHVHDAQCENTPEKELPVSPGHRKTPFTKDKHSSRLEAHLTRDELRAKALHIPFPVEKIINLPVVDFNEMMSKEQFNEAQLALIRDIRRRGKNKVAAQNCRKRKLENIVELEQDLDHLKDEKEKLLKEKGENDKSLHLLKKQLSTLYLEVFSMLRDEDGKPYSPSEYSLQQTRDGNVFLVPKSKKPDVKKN
Sequence of Keap1/Nrf2 (Q14145 whole entry, the tested form may be a part): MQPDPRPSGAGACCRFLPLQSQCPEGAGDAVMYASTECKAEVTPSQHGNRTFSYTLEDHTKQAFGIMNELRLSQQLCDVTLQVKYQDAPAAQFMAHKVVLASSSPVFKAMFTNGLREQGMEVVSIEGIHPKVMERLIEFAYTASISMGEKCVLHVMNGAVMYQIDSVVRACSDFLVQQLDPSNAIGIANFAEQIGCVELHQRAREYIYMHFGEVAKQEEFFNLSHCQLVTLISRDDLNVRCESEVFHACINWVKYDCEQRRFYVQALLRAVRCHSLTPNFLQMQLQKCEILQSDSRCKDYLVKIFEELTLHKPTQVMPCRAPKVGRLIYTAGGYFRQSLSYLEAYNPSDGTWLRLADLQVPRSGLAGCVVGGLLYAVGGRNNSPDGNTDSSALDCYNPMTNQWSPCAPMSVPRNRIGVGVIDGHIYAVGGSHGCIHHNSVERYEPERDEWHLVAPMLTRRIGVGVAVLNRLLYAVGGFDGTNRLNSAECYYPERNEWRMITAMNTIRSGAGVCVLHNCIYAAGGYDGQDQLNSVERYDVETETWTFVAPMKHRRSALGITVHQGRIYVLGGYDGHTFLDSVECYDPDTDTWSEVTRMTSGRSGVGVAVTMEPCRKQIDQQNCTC

[3] = Metabolic stability in human liver microsomes assessed as compound remaining at 5 uM measured upto 60 mins
Cytochrome P450 2C19 = Cytochrome P450 2C19 (Homo sapiens, UniProt P33261); test: Inhibition of CYP2C19 in human liver microsomes; type: ADME, Microsome
Sequence of Cytochrome P450 2C19 (P33261 whole entry): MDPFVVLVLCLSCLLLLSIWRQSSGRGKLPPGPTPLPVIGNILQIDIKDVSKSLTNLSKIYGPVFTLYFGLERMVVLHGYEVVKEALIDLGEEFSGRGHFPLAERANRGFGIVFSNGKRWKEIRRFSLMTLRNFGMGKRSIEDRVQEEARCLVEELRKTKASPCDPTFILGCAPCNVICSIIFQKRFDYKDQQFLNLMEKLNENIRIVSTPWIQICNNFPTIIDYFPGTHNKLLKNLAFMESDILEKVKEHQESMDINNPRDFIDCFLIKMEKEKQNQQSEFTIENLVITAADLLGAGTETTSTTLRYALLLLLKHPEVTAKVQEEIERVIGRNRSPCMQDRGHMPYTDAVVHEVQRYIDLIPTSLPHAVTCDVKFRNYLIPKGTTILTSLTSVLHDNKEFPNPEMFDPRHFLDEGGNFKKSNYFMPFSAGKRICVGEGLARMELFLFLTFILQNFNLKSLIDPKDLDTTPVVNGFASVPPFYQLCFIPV

Cytochrome P450 2C8 = target: T1, Cytochrome P450 2C8 (Homo sapiens, UniProt P10632); test: Inhibition of CYP2C8 in human liver microsomes; type: ADME, Microsome
T1 sequence (P10632 whole entry): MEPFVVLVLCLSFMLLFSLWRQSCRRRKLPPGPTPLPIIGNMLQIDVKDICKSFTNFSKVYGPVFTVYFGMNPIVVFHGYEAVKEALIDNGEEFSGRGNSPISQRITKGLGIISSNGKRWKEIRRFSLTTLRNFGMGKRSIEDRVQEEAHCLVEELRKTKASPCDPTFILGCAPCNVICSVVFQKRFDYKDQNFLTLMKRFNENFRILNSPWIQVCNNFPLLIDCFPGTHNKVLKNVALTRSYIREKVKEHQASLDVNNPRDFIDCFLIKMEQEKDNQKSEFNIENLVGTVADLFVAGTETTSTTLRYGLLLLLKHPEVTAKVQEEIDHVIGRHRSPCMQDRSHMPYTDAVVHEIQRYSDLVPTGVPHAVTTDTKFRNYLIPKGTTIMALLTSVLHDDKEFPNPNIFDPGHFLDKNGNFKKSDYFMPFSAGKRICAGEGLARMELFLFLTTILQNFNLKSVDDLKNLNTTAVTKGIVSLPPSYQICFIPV

Cytochrome P450 3A4 = Cytochrome P450 3A4 (Homo sapiens, UniProt P08684); test: Inhibition of CYP3A4 in human liver microsomes; type: ADME, Microsome
Sequence of Cytochrome P450 3A4 (P08684 whole entry): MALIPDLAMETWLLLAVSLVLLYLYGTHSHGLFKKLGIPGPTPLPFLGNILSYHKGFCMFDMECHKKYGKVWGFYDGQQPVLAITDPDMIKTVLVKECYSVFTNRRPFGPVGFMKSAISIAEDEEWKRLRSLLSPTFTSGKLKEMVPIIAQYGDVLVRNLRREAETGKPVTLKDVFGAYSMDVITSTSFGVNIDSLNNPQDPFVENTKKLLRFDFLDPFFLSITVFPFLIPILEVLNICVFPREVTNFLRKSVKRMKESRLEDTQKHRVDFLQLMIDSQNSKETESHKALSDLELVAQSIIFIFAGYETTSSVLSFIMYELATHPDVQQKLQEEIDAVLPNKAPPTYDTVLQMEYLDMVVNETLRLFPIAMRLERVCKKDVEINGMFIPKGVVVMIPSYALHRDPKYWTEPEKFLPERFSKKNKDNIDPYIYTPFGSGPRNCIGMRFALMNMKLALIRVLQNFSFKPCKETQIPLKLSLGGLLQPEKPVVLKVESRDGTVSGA

[4] = target: Voltage-gated inwardly rectifying potassium channel KCNH2 (Homo sapiens, UniProt Q12809); test: Inhibition of human ERG by patch clamp assay; type: toxicity
Sequence of Voltage-gated inwardly rectifying potassium channel KCNH2 (Q12809 whole entry): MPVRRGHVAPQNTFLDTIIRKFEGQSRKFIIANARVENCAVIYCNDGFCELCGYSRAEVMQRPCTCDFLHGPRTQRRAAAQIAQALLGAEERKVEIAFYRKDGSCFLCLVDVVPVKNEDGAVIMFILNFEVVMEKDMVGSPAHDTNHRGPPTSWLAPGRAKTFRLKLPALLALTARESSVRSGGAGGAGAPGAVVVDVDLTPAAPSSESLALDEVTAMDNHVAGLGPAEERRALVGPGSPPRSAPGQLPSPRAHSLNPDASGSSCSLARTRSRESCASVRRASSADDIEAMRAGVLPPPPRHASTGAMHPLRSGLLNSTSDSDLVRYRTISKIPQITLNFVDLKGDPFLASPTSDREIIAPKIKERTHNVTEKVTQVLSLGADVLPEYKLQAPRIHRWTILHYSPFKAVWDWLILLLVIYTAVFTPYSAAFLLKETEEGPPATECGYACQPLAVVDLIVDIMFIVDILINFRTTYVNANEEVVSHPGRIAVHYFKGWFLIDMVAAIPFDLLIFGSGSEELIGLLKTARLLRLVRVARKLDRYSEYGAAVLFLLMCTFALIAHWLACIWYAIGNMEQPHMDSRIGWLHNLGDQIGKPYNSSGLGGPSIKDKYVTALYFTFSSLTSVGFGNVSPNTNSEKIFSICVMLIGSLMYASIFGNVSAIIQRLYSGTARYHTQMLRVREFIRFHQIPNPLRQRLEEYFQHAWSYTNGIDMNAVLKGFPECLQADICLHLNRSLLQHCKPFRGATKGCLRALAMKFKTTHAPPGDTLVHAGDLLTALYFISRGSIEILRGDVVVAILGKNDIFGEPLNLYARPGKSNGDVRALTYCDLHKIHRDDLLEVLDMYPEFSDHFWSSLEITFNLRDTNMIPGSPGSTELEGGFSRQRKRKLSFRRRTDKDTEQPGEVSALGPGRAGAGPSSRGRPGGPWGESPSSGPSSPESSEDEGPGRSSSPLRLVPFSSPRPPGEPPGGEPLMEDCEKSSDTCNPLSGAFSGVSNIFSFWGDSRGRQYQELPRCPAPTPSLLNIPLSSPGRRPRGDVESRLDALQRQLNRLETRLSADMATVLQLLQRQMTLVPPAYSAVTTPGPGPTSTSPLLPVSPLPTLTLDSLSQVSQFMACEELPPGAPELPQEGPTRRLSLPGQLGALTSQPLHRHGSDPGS

Cytochrome P450 2D6 = Cytochrome P450 2D6 (Homo sapiens, UniProt P10635); test: Inhibition of CYP2D6 in human liver microsomes; type: ADME, Microsome
Sequence of Cytochrome P450 2D6 (P10635 whole entry): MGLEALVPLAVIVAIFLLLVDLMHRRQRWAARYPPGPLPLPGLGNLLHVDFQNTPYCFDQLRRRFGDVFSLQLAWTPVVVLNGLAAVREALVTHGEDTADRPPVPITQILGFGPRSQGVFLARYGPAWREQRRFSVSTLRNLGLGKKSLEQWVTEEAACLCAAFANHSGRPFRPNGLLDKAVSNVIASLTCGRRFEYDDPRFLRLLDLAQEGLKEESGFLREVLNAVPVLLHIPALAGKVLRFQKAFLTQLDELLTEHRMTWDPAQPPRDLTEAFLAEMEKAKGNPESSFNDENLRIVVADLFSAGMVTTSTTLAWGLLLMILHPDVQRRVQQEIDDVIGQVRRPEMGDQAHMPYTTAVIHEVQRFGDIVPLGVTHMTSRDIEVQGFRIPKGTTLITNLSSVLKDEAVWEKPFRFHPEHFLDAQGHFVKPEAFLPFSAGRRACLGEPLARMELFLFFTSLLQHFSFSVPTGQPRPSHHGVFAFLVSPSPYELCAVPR

Cytochrome P450 2C9 = Cytochrome P450 2C9 (Homo sapiens, UniProt P11712); test: Inhibition of CYP2C9 in human liver microsomes; type: ADME, Microsome
Sequence of Cytochrome P450 2C9 (P11712 whole entry): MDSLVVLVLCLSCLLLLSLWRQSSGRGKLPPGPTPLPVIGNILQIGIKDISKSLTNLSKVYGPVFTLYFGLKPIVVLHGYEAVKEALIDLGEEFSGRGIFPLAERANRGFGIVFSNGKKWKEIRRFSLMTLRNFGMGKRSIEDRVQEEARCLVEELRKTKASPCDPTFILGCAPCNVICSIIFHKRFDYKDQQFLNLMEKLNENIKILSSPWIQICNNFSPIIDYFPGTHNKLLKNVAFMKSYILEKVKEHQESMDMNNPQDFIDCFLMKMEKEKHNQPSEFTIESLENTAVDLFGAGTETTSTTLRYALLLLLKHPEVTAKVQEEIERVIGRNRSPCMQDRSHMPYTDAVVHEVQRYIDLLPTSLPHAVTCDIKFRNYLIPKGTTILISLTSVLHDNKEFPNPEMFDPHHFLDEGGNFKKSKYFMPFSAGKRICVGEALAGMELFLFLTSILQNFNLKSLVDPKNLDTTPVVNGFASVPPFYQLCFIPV

Cytochrome P450 1A2 = target: T2, Cytochrome P450 1A2 (Homo sapiens, UniProt P05177); test: Inhibition of CYP1A2 in human liver microsomes; type: ADME, Microsome
T2 sequence (P05177 whole entry): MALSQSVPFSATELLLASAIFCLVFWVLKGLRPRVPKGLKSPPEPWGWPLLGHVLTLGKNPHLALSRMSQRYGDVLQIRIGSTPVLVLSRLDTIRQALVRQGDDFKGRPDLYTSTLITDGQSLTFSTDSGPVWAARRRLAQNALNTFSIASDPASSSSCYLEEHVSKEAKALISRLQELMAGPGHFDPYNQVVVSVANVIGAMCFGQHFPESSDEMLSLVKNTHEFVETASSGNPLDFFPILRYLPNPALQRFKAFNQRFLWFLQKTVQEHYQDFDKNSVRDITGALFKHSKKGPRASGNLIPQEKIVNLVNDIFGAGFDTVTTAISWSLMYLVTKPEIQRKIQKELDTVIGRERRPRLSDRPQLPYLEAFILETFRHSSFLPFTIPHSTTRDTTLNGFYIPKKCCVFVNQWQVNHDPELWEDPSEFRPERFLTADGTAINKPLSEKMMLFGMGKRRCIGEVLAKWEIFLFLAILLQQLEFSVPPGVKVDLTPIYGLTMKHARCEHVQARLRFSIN

Sequence of Kelch-like ECH-associated protein 1 (Q14145 whole entry, the tested form may be a part): as the sequence (Q14145 whole entry, the tested form may be a part) above

SMILES | Papp at 2 h [2] | IC50 (Keap1/Nrf2) | remaining at 1 h, 5 µM [3] | also measured
COc1ccc(S(=O)(=O)Nc2ccc(N(CC(=O)N3CCSC3=O)S(=O)(=O)c3ccc(OC)cc3)c3ccccc23)cc1 | – | – | – | bioavailability (in vivo): 68%
Cc1ccc([C@@H](NC(=O)[C@@H](F)c2ccc3c(c2)CCCC3)[C@@H](C)C(=O)O)cc1 | 33 ×10⁻⁶ cm/s | 0.26 µM | – | Kd [1]: 0.13 µM
Cc1ccc([C@@H](NC(=O)Cc2ccc(Cn3ccccc3=O)cc2)[C@@H](C)C(=O)O)cc1 | 0.16 ×10⁻⁶ cm/s | 0.92 µM | 98% | –
Cc1ccc(CC(=O)N[C@H](c2ccc(C)c(OCC3CCCCC3)c2)[C@@H](C)C(=O)O)cc1 | 17 ×10⁻⁶ cm/s | 10 µM | – | –
Cc1ccc([C@@H](NC(=O)[C@@H](F)c2ccc(Cl)cc2)[C@@H](C)C(=O)O)cc1OCC(C)(C)C#N | – | – | – | IC50 (Cytochrome P450 2C19): > 10 µM; IC50 (Cytochrome P450 2C8): > 10 µM; IC50 (Cytochrome P450 3A4): > 10 µM; IC50 [4]: > 30 µM; IC50 (Cytochrome P450 2D6): > 10 µM; IC50 (Cytochrome P450 2C9): 6.2 µM; IC50 (Cytochrome P450 1A2): > 10 µM
CCCOc1cc([C@@H](NC(=O)Cc2ccc(C)cc2)[C@@H](C)C(=O)O)ccc1C | 18 ×10⁻⁶ cm/s | 9.6 µM | 57% | –
Cc1ccc(CC(=O)N[C@H](c2ccc(C)c(OCC(C)C)c2)[C@@H](C)C(=O)O)cc1 | 26 ×10⁻⁶ cm/s | 3.6 µM | 73% | –
Cc1ccc(CC(=O)N[C@H](c2ccc(C)cc2)[C@@H](C)C(=O)O)cc1 | 8.8 ×10⁻⁶ cm/s | 20 µM | 97% | –
Cc1ccc([C@@H](NC(=O)Cc2ccc(Cc3ncccc3C)cc2)[C@@H](C)C(=O)O)cc1.Cl | 11 ×10⁻⁶ cm/s | 0.14 µM | 93% | –
Cc1ccc([C@@H](NC(=O)Cc2ccc(CC3CCCCC3)cc2)[C@@H](C)C(=O)O)cc1 | 42 ×10⁻⁶ cm/s | 8.4 µM | 16% | –
Cc1ccc(CC(=O)N[C@H](c2ccc(C)c(OCC(C)(C)C#N)c2)[C@@H](C)C(=O)O)cc1 | 1.4 ×10⁻⁶ cm/s | 0.078 µM | 43% | –
Cc1ccc(CC(=O)N[C@H](c2ccc(C)c(OCC(C)(C)F)c2)[C@@H](C)C(=O)O)cc1 | 11 ×10⁻⁶ cm/s | 0.27 µM | 68% | –
Cc1ccc([C@@H](NC(=O)Cc2ccc(CC3CC3)cc2)[C@@H](C)C(=O)O)cc1 | 15 ×10⁻⁶ cm/s | 15 µM | 93% | –
Cc1ccc(CC(=O)N[C@H](c2ccc(C)c(OCC(C)(C)O)c2)[C@@H](C)C(=O)O)cc1 | 0.31 ×10⁻⁶ cm/s | 4.2 µM | 100% | –
Cc1ccc([C@@H](NC(=O)Cc2ccc(Cc3cccc(C)n3)cc2)[C@@H](C)C(=O)O)cc1.Cl | 2 ×10⁻⁶ cm/s | 0.17 µM | 94% | –
Cc1ccc(CC(=O)N[C@H](c2ccc(C)c(OCC3CCCC3)c2)[C@@H](C)C(=O)O)cc1 | 21 ×10⁻⁶ cm/s | 5 µM | – | –
Cc1ccc(CC(=O)N[C@H](c2ccc(C)c(OCC3(C#N)CC3)c2)[C@@H](C)C(=O)O)cc1 | 0.62 ×10⁻⁶ cm/s | 0.05 µM | 83% | –
Cc1ccc([C@@H](NC(=O)Cc2ccc(Cc3cc(C)ccn3)cc2)[C@@H](C)C(=O)O)cc1.Cl | 5.4 ×10⁻⁶ cm/s | 0.22 µM | 92% | –
COc1cccnc1Cc1ccc(CC(=O)N[C@H](c2ccc(C)cc2)[C@@H](C)C(=O)O)cc1.Cl | 7.1 ×10⁻⁶ cm/s | 0.1 µM | 91% | –
Cc1ccc([C@@H](NC(=O)Cc2ccc(Cc3ccccn3)cc2)[C@@H](C)C(=O)O)cc1.Cl | 5.7 ×10⁻⁶ cm/s | 0.36 µM | 94% | –
Cc1ccc(CC(=O)N[C@H](c2ccc(C)c(OCc3ccccc3)c2)[C@@H](C)C(=O)O)cc1 | 21 ×10⁻⁶ cm/s | 13 µM | 74% | –
Cc1ccc([C@@H](NC(=O)Cc2ccc(Cl)cc2)[C@@H](C)C(=O)O)cc1OCC(C)(C)C#N | 1.2 ×10⁻⁶ cm/s | 0.091 µM | 90% | –
Cc1ccc([C@@H](NC(=O)Cc2ccc(Cc3ccc(C)cn3)cc2)[C@@H](C)C(=O)O)cc1.Cl | 5.4 ×10⁻⁶ cm/s | 0.2 µM | 97% | –
CCOc1cccnc1Cc1ccc(CC(=O)N[C@H](c2ccc(C)cc2)[C@@H](C)C(=O)O)cc1 | 8.9 ×10⁻⁶ cm/s | 0.045 µM | 84% | –
CCOc1cccnc1Cc1ccc([C@H](F)C(=O)N[C@H](c2ccc(C)cc2)[C@@H](C)C(=O)O)cc1 | – | – | – | IC50 (Cytochrome P450 2C19): > 10 µM; IC50 (Cytochrome P450 2C8): > 10 µM; IC50 (Cytochrome P450 3A4): > 10 µM; IC50 [4]: > 30 µM; IC50 (Cytochrome P450 2D6): > 10 µM; IC50 (Cytochrome P450 2C9): > 10 µM; IC50 (Cytochrome P450 1A2): > 10 µM
Cc1ccc([C@@H](NC(=O)Cc2ccc(Cn3cccn3)cc2)[C@@H](C)C(=O)O)cc1 | 1.1 ×10⁻⁶ cm/s | 0.64 µM | 95% | –
Cc1ccc([C@H](F)C(=O)N[C@H](c2ccc(C)c(OCC3(C#N)CC3)c2)[C@@H](C)C(=O)O)cc1 | – | – | – | IC50 (Cytochrome P450 2C19): > 10 µM; IC50 (Cytochrome P450 2C8): > 10 µM; IC50 (Cytochrome P450 3A4): > 10 µM; IC50 [4]: > 30 µM; IC50 (Cytochrome P450 2D6): > 10 µM; IC50 (Cytochrome P450 2C9): > 10 µM; IC50 (Cytochrome P450 1A2): > 10 µM
Cc1ccc([C@@H](NC(=O)Cc2ccc(Cc3ccccc3)cc2)[C@@H](C)C(=O)O)cc1 | 24 ×10⁻⁶ cm/s | 2 µM | 79% | –
